Source: US9758485B2, “Compounds for controlling arthropods” (priority 2013, dated 2017)
Read-outs that look alike come from different tables or passages of the source.

Experiments:
Phaedon cochleariae = Phaedon cochleariae - spray test; type: in vivo; details: Phaedon cochleariae, foliar, 168 h, larvae on Chinese cabbage leaf discs, after 7 days, read-out: efficacy; for pest or weed control at 100 g/ha: application rate 100 g/ha
Description: Phaedon cochleariae—Spray Test
(§1) Solvent: 78.0 parts by weight of acetone and 1.5 parts by weight of dimethylformamide
(§2) Emulsifier: alkylaryl polyglycol ether
(§3) To produce an appropriate active ingredient formulation, 1 part by weight of active ingredient is dissolved using the specified parts by weight of solvent and made up with water containing an emulsifier concentration of 1000 ppm until the desired concentration is attained. To produce further test concentrations, the preparation is diluted with emulsifier-containing water.
Discs of Chinese cabbage leaves (Brassica pekinensis) are sprayed with an active ingredient formulation of the desired concentration and, after drying, populated with larvae of the mustard beetle (Phaedon cochleariae).
After 7 days, efficacy in % is determined. 100% means that all the beetle larvae have been killed; 0% means that no beetle larvae have been killed.

Lucilia cuprina = Lucilia cuprina test; type: in vivo; details: Lucilia cuprina, 48 h; application rate 100 ppm; L1 larvae in minced horsemeat; kill after 2 days; read-out: efficacy
Method in brief: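 About 20 L1 larvae placed on minced horsemeat treated with compound, formulated in DMSO and diluted with water to test concentration. Kill in % scored after 2 days (100% = all larvae dead, 0% = none).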

Tetranychus urticae = Tetranychus urticae - spray test, OP-resistant; type: in vivo; details: foliar, 144 h, bean leaf discs, after 6 days, read-out: efficacy; for pest or weed control at 100 g/ha: application rate 100 g/ha
Description: Tetranychus urticae—Spray Test, OP-Resistant
as §1, §2, §3
Discs of bean leaves (Phaseolus vulgaris) infested by all stages of the greenhouse red spider mite (Tetranychus urticae) are sprayed with an active ingredient formulation of the desired concentration.
After 6 days, efficacy in % is determined. 100% means that all the spider mites have been killed; 0% means that none of the spider mites have been killed.

Spodoptera frugiperda = Spodoptera frugiperda - spray test; type: in vivo; details: foliar, 168 h, caterpillars on maize leaf discs, after 7 days, read-out: efficacy; for pest or weed control at 100 g/ha: application rate 100 g/ha
Description: Spodoptera frugiperda—Spray Test
as §1, §2, §3
Leaf discs of maize (Zea mays) are sprayed with an active ingredient formulation of the desired concentration and, after drying, populated with caterpillars of the armyworm (Spodoptera frugiperda).
After 7 days, efficacy in % is determined. 100% means that all the caterpillars have been killed; 0% means that no caterpillars have been killed.

[1] = logP determination by HPLC on a reversed-phase column (C18), EEC Directive 79/831 Annex V.A8; type: physicochemical; details: for log P: HPLC on reversed-phase column (C18)
Ctenocephalides felis [2] = experiment: Ctenocephalides felis - oral test; type: in vivo; details: Ctenocephalides felis, po, 48 h; application rate 100 ppm in citrated cattle blood; adult fleas; kill after 2 days; read-out: efficacy
Method in brief: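 Compound dissolved in DMSO (10 mg in 0.5 ml stock) and diluted with citrated cattle blood to test concentration. About 20 unfed adult fleas fed on the treated blood through a parafilm membrane. Kill (%) scored after 2 days; 100% = all fleas dead.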

Rhipicephalus sanguineus = Rhipicephalus sanguineus - in vitro contact tests with adult brown dog ticks; type: in vivo; details: application rate 5 μg/cm^2, after 48 h (dead or moribund)
Method in brief: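 Test compound was dissolved in acetone p.a. (9 mg in 1 ml, then diluted), and 250 μl were spread evenly over the inner surface of 25 ml test tubes on an orbital shaker at 30 rpm for 2 h. Once the solvent evaporated, 5-10 adult Rhipicephalus sanguineus ticks were sealed in, kept dark at room temperature, and after 48 h placed on a 45-50° C. hotplate to score dead or moribund ticks.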

Musca domestica = Musca domestica test; type: in vivo; details: application rate 100 ppm; adult houseflies; kill after 2 days
Method in brief: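 Compound dissolved in DMSO (10 mg per 0.5 ml) and diluted with water to the test concentration. Sponges soaked with sugar solution plus formulation were offered to 10 adult houseflies per vessel. Mortality (% kill, 100% = all dead, 0% = none) scored after 2 days.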

Boophilus microplus = Boophilus microplus - injection test; type: in vivo; details: Rhipicephalus microplus, 168 h; application rate 20 μg/animal; injected into engorged adult female ticks; laying of fertile eggs, after 7 days; read-out: efficacy
Method in brief: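 Engorged adult female ticks, five per dose, were injected in the abdomen with 1 μl of active ingredient diluted in dimethyl sulphoxide. Animals were kept in dishes under climate control, and egg fertility was assessed after 7 days.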

Meloidogyne incognita = Meloidogyne incognita test; type: in vivo; details: application rate 20 ppm; formation of galls on lettuce roots after 14 days
Description: Meloidogyne incognita Test
Solvent: 125.0 parts by weight of acetone
To produce an appropriate active ingredient formulation, 1 part by weight of active ingredient is mixed with the stated amount of solvent and the concentrate is diluted with water to the desired concentration.
Vessels are filled with sand, active ingredient solution, an egg/larvae suspension of the southern root-knot nematode (Meloidogyne incognita) and lettuce seeds. The lettuce seeds germinate and the plants develop. The galls develop on the roots.
After 14 days, the nematicidal efficacy in % is determined by the formation of galls. 100% means that no galls were found; 0% means that the number of galls on the treated plants corresponds to the untreated control.

[3] = test system: Boophilus microplus Parkhurst strain, SP-resistant; experiment: Boophilus microplus - dip test; type: in vivo; details: application rate 100 ppm; dip of engorged adult female ticks; laying of fertile eggs, after 7 days
Method in brief: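 Adult engorged females of SP-resistant Parkhurst strain (8–10 per tube) fully immersed in compound diluted in water from a DMSO solution. Ticks then kept on filter discs in a climate-controlled room; efficacy scored from fertile egg laying at 7 days, with unclear eggs held about 42 days until hatch (100% = no fertile eggs).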

Ctenocephalides felis [4] = experiment: Ctenocephalides felis - in vitro contact tests with adult cat fleas; type: in vivo; details: application rate 5 μg/cm^2 (=500 g/ha), after 48 h (dead or moribund)
Method in brief: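 Acetone solution coated on test-tube inner walls (900 ppm gives 5 μg/cm^2). After drying, 5-10 adult cat fleas added and kept horizontal at room temperature and ambient humidity. At 48 h fleas knocked down; motionless or uncoordinated ones counted dead/moribund, giving % efficacy.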

[5] = reversed-phase HPLC column (C18), HPLC, reversed-phase C18, acetonitrile/water with formic acid, 55° C., read-out: logP

chromatographic logP [1, 5]	SMILES	pest or weed control at 100 g/ha (Phaedon cochleariae) [%]	pest or weed control at 100 ppm (Lucilia cuprina) [%]	pest or weed control at 100 g/ha (Tetranychus urticae) [%]	pest or weed control at 100 g/ha (Spodoptera frugiperda) [%]	pest or weed control at 100 ppm (Ctenocephalides felis [2]) [%]	other results
3.1	COc1cc(C(F)(F)F)cc(F)c1-n1cc(-c2ccc(Cl)c(C(=O)NC3CC3)c2)cn1 [I-T3-50, 2-chloro-N-cyclopropyl-5-[1-[2-fluoro-6-methoxy-4-(trifluoromethyl)phenyl]pyrazol-4-yl]benzamide]	100	100	90	83	100	chromatographic logP ([1]; reversed-phase HPLC column (C18), HPLC-MS method a), Table I-T3; read-out: logP^a)): 3.1; chromatographic logP ([1]; reversed-phase HPLC column (C18), HPLC-MS method a); read-out: logP^a)): 3.1
5	Cc1cc(C(F)(C(F)(F)F)C(F)(F)F)cc(C(F)(F)F)c1-n1cc(-c2ccc(Cl)c(C(=S)NC3CC3)c2)cn1 [I-T3-161, 2-chloro-N-cyclopropyl-5-[1-[2-methyl-4-[1,2,2,2-tetrafluoro-1-(trifluoromethyl)ethyl]-6-(trifluoromethyl)phenyl]pyrazol-4-yl]benzenecarbothioamide]	100	100	100	100	100	efficacy (Rhipicephalus sanguineus): 100%; chromatographic logP ([1]; reversed-phase HPLC column (C18), HPLC-MS method a), reversed-phase column (C18); read-out: logP^a)): 5; chromatographic logP ([1]; reversed-phase HPLC column (C18), HPLC-MS, reversed-phase column (C18), read-out: log P): 5; efficacy (Musca domestica): 100%; pest or weed control at 0.02 mg (Boophilus microplus): 100%
–	O=C(NC1CC1)c1cc(-c2cnn(-c3c(Cl)cc(C(F)(F)F)c(F)c3Cl)c2)ccc1Cl [I-T3-184]	–	–	–	–	–	log P [1]: 3.6; efficacy (Meloidogyne incognita): 90%
–	N#CC1(NC(=O)c2cc(-c3cnn(-c4c(Cl)cc(C(F)(F)F)c(F)c4Cl)c3)ccc2Cl)CC1 [I-T3-185]	–	–	–	–	–	log P [1]: 3.6; efficacy (Meloidogyne incognita): 90%
4.74	Cc1cc(C(F)(C(F)(F)F)C(F)(F)F)cc(C)c1-c1cnn(-c2ccc(Cl)c(C(=O)NC3CC3)c2)c1 [I-T4-1, N-cyclopropyl-2-chloro-5-[4-[2,6-dimethyl-4-[1,2,2,2-tetrafluoro-1-(trifluoromethyl)ethyl]phenyl]pyrazol-1-yl]benzamide]	100	100	100	100	100	–
4.42	Cc1cc(C(F)(C(F)(F)F)C(F)(F)F)cc(C)c1-c1cnn(-c2cnc(Cl)c(C(=O)NC3CC3)c2)c1 [I-T4-3, 2-chloro-N-cyclopropyl-5-[4-[2,6-dimethyl-4-[1,2,2,2-tetrafluoro-1-(trifluoromethyl)ethyl]phenyl]pyrazol-1-yl]pyridine-3-carboxamide]	100	100	100	100	100	–
4.75	Cc1cc(C(F)(C(F)(F)F)C(F)(F)F)cc(C)c1-c1cc(-c2ccc(Cl)c(C(=O)NC3CC3)c2)on1 [I-T22-1, 2-chloro-N-cyclopropyl-5-[3-[2,6-dimethyl-4-[1,2,2,2-tetrafluoro-1-(trifluoromethyl)ethyl]phenyl]isoxazol-5-yl]benzamide]	100	100	90	100	100	–
4.7	Cc1cc(C(F)(C(F)(F)F)C(F)(F)F)cc(C(F)(F)F)c1-c1cc(-c2ccc(Cl)c(C(=O)NC3(C#N)CC3)c2)on1 [I-T22-7, 2-chloro-N-(1-cyanocyclopropyl)-5-[3-[2-methyl-4-[1,2,2,2-tetrafluoro-1-(trifluoromethyl)ethyl]-6-(trifluoromethyl)phenyl]isoxazol-5-yl]benzamide]	100	100	100	100	100	efficacy [3]: 100%; efficacy (Rhipicephalus sanguineus): 100%; efficacy (Ctenocephalides felis [4]): 100%; efficacy (Musca domestica): 100%; pest or weed control at 0.02 mg (Boophilus microplus): 100%
4.96	O=C(NC1CC1)c1cc(-c2cc(-c3c(Cl)cc(C(F)(C(F)(F)F)C(F)(F)F)cc3Cl)on2)ccc1Cl [I-T23-1, 2-chloro-N-cyclopropyl-5-[5-[2,6-dichloro-4-[1,2,2,2-tetrafluoro-1-(trifluoromethyl)ethyl]phenyl]isoxazol-3-yl]benzamide]	–	100	–	–	100	pest or weed control at 500 g/ha (Phaedon cochleariae; application rate 500 g/ha): 100%; pest or weed control at 500 g/ha (Tetranychus urticae; application rate 500 g/ha): 100%; pest or weed control at 500 g/ha (Spodoptera frugiperda; application rate 500 g/ha): 100%
